Target: recombinant human His6-USP1/His6-UAF1 composite protein (Homo sapiens (Human), UniProt O94782)
Assay: USP1 enzyme activity detection (Ub-Rho fluorescence)
Assay type: biochemical
Conditions: USP1/UAF1, Ub-Rho substrate 300 nM, 1 hour pre-incubation; read-out: IC50 (enzymatic inhibition of USP1)

Sequence of recombinant human His6-USP1/His6-UAF1 composite protein (O94782 whole entry): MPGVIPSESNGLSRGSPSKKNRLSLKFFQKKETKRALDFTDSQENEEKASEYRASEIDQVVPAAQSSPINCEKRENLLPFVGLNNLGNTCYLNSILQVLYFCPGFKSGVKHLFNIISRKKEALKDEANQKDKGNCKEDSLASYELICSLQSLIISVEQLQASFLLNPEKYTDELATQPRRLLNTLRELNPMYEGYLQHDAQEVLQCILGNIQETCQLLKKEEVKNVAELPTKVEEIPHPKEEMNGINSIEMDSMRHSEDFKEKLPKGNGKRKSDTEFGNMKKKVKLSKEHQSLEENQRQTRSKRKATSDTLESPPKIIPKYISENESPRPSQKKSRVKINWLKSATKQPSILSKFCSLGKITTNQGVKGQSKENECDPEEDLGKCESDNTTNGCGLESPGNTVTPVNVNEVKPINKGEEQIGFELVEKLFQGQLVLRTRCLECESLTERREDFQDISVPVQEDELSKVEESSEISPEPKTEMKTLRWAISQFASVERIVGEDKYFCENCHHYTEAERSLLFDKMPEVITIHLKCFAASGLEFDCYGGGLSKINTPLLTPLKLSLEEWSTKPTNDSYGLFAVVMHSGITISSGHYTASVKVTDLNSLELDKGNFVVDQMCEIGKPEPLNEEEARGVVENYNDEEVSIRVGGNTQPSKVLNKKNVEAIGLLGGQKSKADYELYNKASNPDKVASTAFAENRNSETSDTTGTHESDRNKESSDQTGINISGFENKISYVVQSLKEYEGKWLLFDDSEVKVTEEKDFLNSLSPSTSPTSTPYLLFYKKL
Sequence of recombinant human His6-USP1/His6-UAF1 composite protein (Q8TAF3 whole entry partner): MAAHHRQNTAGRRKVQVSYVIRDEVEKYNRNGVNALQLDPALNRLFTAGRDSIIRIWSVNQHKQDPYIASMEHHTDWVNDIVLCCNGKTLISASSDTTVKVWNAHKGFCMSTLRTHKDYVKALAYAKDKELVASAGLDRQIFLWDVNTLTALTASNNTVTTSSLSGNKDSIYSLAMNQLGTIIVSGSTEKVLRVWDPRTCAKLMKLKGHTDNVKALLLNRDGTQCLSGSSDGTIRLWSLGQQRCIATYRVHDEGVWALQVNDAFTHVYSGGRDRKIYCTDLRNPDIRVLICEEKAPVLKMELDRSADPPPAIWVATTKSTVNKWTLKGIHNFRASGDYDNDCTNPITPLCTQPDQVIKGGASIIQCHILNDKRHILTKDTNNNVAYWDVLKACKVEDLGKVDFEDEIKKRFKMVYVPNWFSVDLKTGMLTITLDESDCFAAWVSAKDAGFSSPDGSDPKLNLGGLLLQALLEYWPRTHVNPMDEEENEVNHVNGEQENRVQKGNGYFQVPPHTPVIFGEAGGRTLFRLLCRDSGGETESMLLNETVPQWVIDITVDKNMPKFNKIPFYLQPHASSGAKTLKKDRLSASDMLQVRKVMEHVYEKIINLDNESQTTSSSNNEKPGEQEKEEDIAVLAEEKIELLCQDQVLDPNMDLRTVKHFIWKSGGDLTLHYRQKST

Row | IC50 [nM] | Structure (SMILES)
1 | 29.9 | COc1ncnc(C2CC2)c1-c1ncc2c3c(C#N)cccc3n(Cc3ccc(-c4nc(C(F)(F)F)cn4C)cc3)c2n1 [Compound 39]
2 | 58.3 | COc1ncnc(C2CC2)c1-c1ncc2c3cc(C#N)ccc3n(Cc3ccc(-c4nc(C(F)(F)F)cn4C(C)C)cc3)c2n1 [Compound 12]
3 | 3.03 | COc1ncnc(C2CC2)c1-c1ncc2c3cn(C)nc3n(Cc3cc(F)c(-c4nc(C(F)(F)F)cn4C)c(F)c3)c2n1 [Compound 115]
4 | 4.62 | COc1ncnc(C2CC2)c1-c1ncc2c3ccc(CS(C)(=O)=O)cc3n(Cc3ccc4c(c3)CCCn3cc(C(F)(F)F)nc3-4)c2n1 [Compound 83]
5 | 36 | COc1ncnc(C2CC2)c1-c1ncc2c3ccc(C#N)cc3n(Cc3ccc(-c4nc(C(F)(F)F)c5cnccn45)cc3)c2n1 [Compound 129]
6 | 3.65 | COc1ncnc(C2CC2)c1-c1ncc2c3ccncc3n(Cc3ccc4c(c3)CCCCn3cc(C(F)(F)F)nc3-4)c2n1 [Compound 90]
7 | 21.2 | COc1ncnc(C2CC2)c1-c1ncc2c3cccc(F)c3n(Cc3ccc(-n4nc(C(F)(F)F)cc4C)cc3)c2n1 [Compound 49]
8 | 6.2 | CCP(=O)(CC)c1ccc2c3cnc(-c4c(OC)ncnc4C4CC4)nc3n(Cc3ccc4c(c3)CCCn3cc(C(F)(F)F)nc3-4)c2c1 [Compound 154]
9 | 11.5 | COc1ncnc(C2CC2)c1-c1ncc2c3cccc(C#N)c3n(Cc3ccc(-c4nc(C(F)(F)F)cn4C)cc3)c2n1 [Compound 26]
10 | 73.5 | Cn1cc(C(F)(F)F)nc1-c1ccc(Cn2c3cnccc3c3cnc(-c4cccc5ccn(C)c45)nc32)cc1 [Compound 85]
11 | 5.34 | COc1ncnc(C2CC2)c1-c1ncc2c3sncc3n(Cc3ccc(-c4nc(C(F)(F)F)cn4C)cc3)c2n1 [Compound 60]
12 | 1.89 | COc1ncnc(C2CC2)c1-c1ncc2c3cn(C)nc3n(Cc3ccc(-c4nc(C(F)(F)F)c5n4CCC5)cc3)c2n1 [Compound 114]
13 | 108 | COc1ncnc(C2CC2)c1-c1ncc2c3ccncc3n(Cc3ccc4c(c3)Cn3cc(C(F)(F)F)nc3-4)c2n1 [Compound 71]
14 | 191 | COc1ncnc(C2CC2)c1-c1ncc2c3ccc(C#N)cc3n(Cc3ccc4c(c3)Cn3cc(C(F)(F)F)nc3-4)c2n1 [Compound 70]
15 | 11 | COc1ncnc(C2CC2)c1-c1ncc2c3ccncc3n(Cc3ccc(-c4nc(C(F)(F)F)c(Br)n4C)cc3)c2n1 [Compound 152]
16 | 4.07 | CCn1cc(C(F)(F)F)nc1-c1ccc(Cn2c3ccccc3c3cnc(-c4c(OC)ncnc4C4CC4)nc32)cc1 [Compound 9, 2-(4-cyclopropyl-6-methoxypyrimidin-5-yl)-9-(4-(1-ethyl-4-(trifluoromethyl)-1H-imidazol-2-yl)benzyl)-9H-pyrimido[4,5-b]indole]
17 | 1.54 | COc1ncnc(C2CC2)c1-c1ncc2c3ccc(N4CC(OC)C4)nc3n(Cc3ccc4c(c3)CCCn3cc(C(F)(F)F)nc3-4)c2n1 [Compound 137]
18 | 7.9 | COc1ncnc(C2CC2)c1-c1ncc2c3ccncc3n(Cc3ccc(-c4nc(C(F)(F)F)cn4C)cc3)c2n1 [Compound 55]
19 | 7.55 | COc1ncnc(C2CC2)c1-c1ncc2c3ccccc3n(Cc3ccc(-c4nc(C(F)(F)F)cn4C(C)C)nc3)c2n1 [Compound 16]
20 | 25.3 | COc1ncnc(C2CC2)c1-c1ncc2c3ccncc3n(Cc3ccc4c(c3)OCCn3cc(C(F)(F)F)nc3-4)c2n1 [Compound 76]

Row | IC50 [nM] | Structure (SMILES)
21 | 10.2 | COc1ncnc(C2CC2)c1-c1ncc2c3cn(C)nc3n(Cc3ccc(-c4nc(C(F)(F)F)cs4)cc3)c2n1 [Compound 166]
22 | 38.5 | COc1ncnc(C2CC2)c1-c1ncc2c3ccncc3n(C3CCc4cc(-c5nc(C(F)(F)F)cn5C)ccc43)c2n1 (centres unmarked) [Compound 124]
23 | 23.5 | COc1ncnc(C2CC2)c1-c1ncc2c3cn(C)nc3n(Cc3ccc(-c4nc(C(F)(F)F)c5n4CCOC5)cc3)c2n1 [Compound 139]
24 | 7.15 | COc1cnn(C2CCC2)c1-c1ncc2c3ccncc3n(Cc3ccc(-c4nc(C(F)(F)F)cn4C)cc3)c2n1 [Compound 81]
25 | 9.28 | COc1ncnc(C2CC2)c1-c1ncc2c3ccccc3n(Cc3ccc(-n4nc(C(F)(F)F)cc4C)cc3)c2n1 [Compound 17]
26 | 21 | COc1ncnc(C2CC2)c1-c1ncc2c3ccc(C(F)(F)F)cc3n(Cc3ccc(-c4nc(C(F)(F)F)cn4C(C)C)cc3)c2n1 [Compound 8, 2-(4-cyclopropyl-6-methoxypyrimidin-5-yl)-9-(4-(1-isopropyl-4-(trifluoromethyl)-1H-imidazo 1-2-yl)benzyl)-7-(trifluoroethyl)-9H-pyrimido[4,5-b]indole]
27 | 4.85 | COc1ncnc(C2CC2)c1-c1ncc2c3c(n(Cc4ccc(-c5nc(C(F)(F)F)cn5C)cc4)c2n1)CCC3 [Compound 31]
28 | 3.17 | COc1ncnc(C2CC2)c1-c1ncc2c3cn(C)nc3n(Cc3cc(F)c(-c4nc(C(F)(F)F)c5n4CCC5)c(F)c3)c2n1 [Compound 144]
29 | 5.71 | COc1ncnc(C2CC2)c1-c1ncc2c3ccc(S(N)(=O)=O)cc3n(Cc3ccc(-c4nc(C(F)(F)F)cn4C)cc3)c2n1 [Compound 30]
30 | 62 | COc1ncnc(C2CC2)c1-c1ncc2c3cc(C(C)(C)O)ccc3n(Cc3ccc(-c4nc(C(F)(F)F)cn4C)cc3)c2n1 [Compound 34]
31 | 30.4 | COC(=O)c1ccc2c3cnc(-c4c(OC)ncnc4C4CC4)nc3n(Cc3ccc(-c4nc(C(F)(F)F)cn4C)cc3)c2c1 [Compound 42]
32 | 4.65 | COc1ncnc(C2CC2)c1-c1ncc2c3cn(C)nc3n(Cc3ccc(-c4nc(C(F)(F)F)cn4C(C)C)c(F)c3)c2n1 [Compound 107]
33 | 58 | COc1ncnc(C2CC2)c1-c1ncc2c3cc(S(C)(=O)=O)ccc3n(Cc3ccc(-c4nc(C(F)(F)F)cn4C)cc3)c2n1 [Compound 37]
34 | 3.13 | COc1ncnc(C2CC2)c1-c1ncc2c3ccc(N(C(C)C)S(C)(=O)=O)cc3n(Cc3ccc4c(c3)CCCn3cc(C(F)(F)F)nc3-4)c2n1 [Compound 99]
35 | 7.1 | COc1ncnc(C2CC2)c1-c1ncc2c3ccc(C#N)cc3n(Cc3ccc(-c4nc(C(F)(F)F)c5ccccn45)cc3)c2n1 [Compound 126]
36 | 4.9 | COc1ncnc(C2CC2)c1-c1ncc2c3ccc(F)nc3n(Cc3ccc(-c4nc(C(F)(F)F)cn4C)cc3)c2n1 [Compound 73]
37 | 26.1 | COc1ccc2c(c1)c1cnc(-c3c(OC)ncnc3C3CC3)nc1n2Cc1ccc(-c2nc(C(F)(F)F)cn2C(C)C)cc1 [Compound 33]
38 | 6.07 | COc1ncnc(C2CC2)c1-c1ncc2c3cccc(F)c3n(Cc3ccc(-c4nc(C(F)(F)F)cn4C(C)C)cc3)c2n1 [Compound 6, 2-(4-cyclopropyl-6-methoxypyrimidin-5-yl)-8-fluoro-9-(4-(1-isopropyl-4-(trifluoromethyl)-1H-imidazol-2-yl)benzyl)-9H-pyrimido[4,5-b]indole]
39 | 7.29 | COc1ncnc(C2CC2)c1-c1ncc2c3ccc(C#N)nc3n(Cc3ccc4c(c3)CCCn3cc(C(F)(F)F)nc3-4)c2n1 [Compound 140]
40 | 1.8 | COc1ncnc(C2CC2)c1-c1ncc2c3cn(C)nc3n(Cc3ccc4c(c3)CCCCn3cc(C(F)(F)F)nc3-4)c2n1 [Compound 138]

Row | IC50 [nM] | Structure (SMILES)
41 | 2.74 | COc1ncnc(C2CC2)c1-c1ncc2c3cccnc3n(Cc3ccc4c(c3)CCCn3cc(C(F)(F)F)nc3-4)c2n1 [Compound 63]
42 | 35.2 | COc1ncnc(C2CC2)c1-c1ncc2c3ccc(C(F)(F)F)cc3n(Cc3ccc(-c4nc(C(F)(F)F)cn4C)cc3)c2n1 [Compound 41]
43 | 11.7 | CCC(c1ccc(-c2nc(C(F)(F)F)cn2C(C)C)cc1)n1c2ccccc2c2cnc(-c3c(OC)ncnc3C3CC3)nc21 (centres unmarked) [Compound 23]
44 | 5.9 | COc1ncnc(C2CC2)c1-c1ncc2c3ccc(C#N)cc3n(Cc3ccc(-c4nc(C(F)(F)F)cn4C(C)C)cc3)c2n1 [Compound 51]
45 | 23.9 | COc1ncnc(C2CC2)c1-c1ncc2c3ncncc3n(Cc3ccc4c(c3)CCCn3cc(C(F)(F)F)nc3-4)c2n1 [Compound 112]
46 | 15.1 | COc1ncnc(C2CC2)c1-c1ncc2c3ccc(C(F)F)cc3n(Cc3ccc(-c4nc(C(F)(F)F)cn4C)cc3)c2n1 [Compound 40]
47 | 4.8 | COc1ncnc(C2CC2)c1-c1ncc2c3ccc(C)nc3n(Cc3ccc4c(c3)CCCn3cc(C(F)(F)F)nc3-4)c2n1 [Compound 128]
48 | 4.67 | COc1ncnc(C2CC2)c1-c1ncc2c3cn(C)nc3n(Cc3ccc(-c4nc(C(F)(F)F)c5n4CCC5)c(F)c3)c2n1 [Compound 143]
49 | 12.2 | COc1ncnc(C2CC2)c1-c1ncc2c3cc(F)ccc3n(Cc3ccc(-c4nc(C(F)(F)F)cn4C(C)C)cc3)c2n1 [Compound 15]
50 | 39.2 | COc1ncnc(C2CC2)c1-c1ncc2c3ccncc3n(Cc3ccc4n3CCCn3cc(C(F)(F)F)nc3-4)c2n1 [Compound 68]
51 | 59.6 | COc1ncnc(C2CC2)c1-c1ncc2c3ccncc3n(Cc3ccc4c(c3)CCn3cc(C(F)(F)F)nc3-4)c2n1 [Compound 65]
52 | 135 | COc1ncnc(C2CC2)c1-c1ncc2c3cc(C(F)(F)F)ccc3n(Cc3ccc(-c4nc(C(F)(F)F)cn4C(C)C)cc3)c2n1 [Compound 22]
53 | 19.1 | COc1ncnc(C2CC2)c1-c1ncc2c(n1)n(Cc1ccc(-c3nc(C(F)(F)F)cn3C(C)C)cc1)c1nccn21 [Compound 32]
54 | 26 | COc1ncnc(C2CC2)c1-c1ncc2c3ccncc3n(Cc3ccc(-c4nc(C(F)(F)F)c(F)n4C)cc3)c2n1 [Compound 155]
55 | 35.5 | COc1ncnc(C2CC2)c1-c1ncc2c3ccccc3n(Cc3ccc(-n4nc(C)cc4C(F)(F)F)cc3)c2n1 [Compound 24]
56 | 12 | COc1ncnc(C2CC2)c1-c1ncc2c3ccc(C#N)cc3n(Cc3ccc(-c4nc(C(F)(F)F)c(C5CC5)n4C)cc3)c2n1 [Compound 164]
57 | 9.5 | [2H]C([2H])([2H])n1cc2c3cnc(-c4c(OC)ncnc4C4CC4)nc3n(Cc3ccc(-c4nc(C(F)(F)F)cn4C(C)C)cc3)c2n1 [Compound 110]
58 | 4.68 | COc1ncnc(C2CC2)c1-c1ncc2c3cn(C)nc3n(Cc3ccc(-c4nc(C(F)(F)F)sc4C)cc3)c2n1 [Compound 131]
59 | 2.56 | COc1ccc2c3cnc(-c4c(OC)ncnc4C4CC4)nc3n(Cc3ccc4c(c3)CCCn3cc(C(F)(F)F)nc3-4)c2n1 [Compound 93]

— patent publication US20250368667A1, “USP1 INHIBITOR” (Shanghai Qilu Pharmaceutical Research and Development …, priority 2022, published 2025)
